These results are taken from patent US20200323219A1, “BIOLOGICAL FUNGICIDE COMPOSED BY PLANT EXTRACTS” (JH Biotech Inc., priority 2019, published 2020).

The test system of experiment [1] is Magnaporthe grisea (teleomorph: Pyricularia oryzae). To be noted: 1000 ppm; cited from earlier work.
For experiment [2], the system named is Alternaria brassicicola. The conditions noted are these: cited from earlier work.
The next experiment concerns Ralstonia solanacearum. To be noted: cited from earlier work.
The subject of a further experiment is Acidovorax citrulli. The conditions noted are these: cited from earlier work.
For experiment [3], the system named is Xanthomonas euvesicatoria. To be noted: cited from earlier work.
In experiment [4] the test system is Alternaria brassicicola. Put plainly: Conidial germination of Alternaria brassicicola on slides in a moist chamber. The class given is cell-based. The conditions noted are these: 24 hours; for Conidial germination rate (%) in different diluted condition 1000X: diluted 1000 times; for Conidial germination rate (%) in different diluted condition 1500X: diluted 1500 times; for Conidial germination rate (%) in different diluted condition 2000X: diluted 2000 times. As to the method:
The tables differ only in how the gallnut and myrobalan are presented. For Table 1-1, gallnut and myrobalan are presented in vol % as described earlier for the Row 6 procedure while Table 1-2 presents the active ingredients of gallnut and myrobalan as concentration (grams/ml). One drop of 20 μl of pathogen conidia suspension (100 conidia per microliter) was mixed with one drop of 20 μl for each of the eight combinations of gallnut and myrobalan formulations, and at dilutions of 750 times, 1000 times, and 1500 times. Each combination was placed on test slides that were maintained at 100% relative humidity at room temperature. The germination rate of 100 conidia on each slide was calculated visually using a microscope following an incubation period of 24 hours. Tables 2-1 and 2-2 show the same plant extract formulations as in Table 1 but including the addition of a surfactant; specifically, either yucca plant extract (Yucca […]) or sodium lauryl sulfate (SLS). Each was added for testing conidial germinations of Alternaria brassicicola. Dilutions were at 1000 times, 1500 times and 2000 times water. 10 vol % of yucca extract or 5 wt. % of SLS was added to the formulations and then used to test the inhibitory effects on conidial germination on the same fungal pathogen Alternaria brassicicola.

Where [5] appears, read: Table 2-2, with surfactant (gms/ml per 100 ml).

For `O=C(O)c1cc(O)c(O)c(O)c1` [gallic acid, 3,4,5-trihydroxybenzoic acid], in experiment [1], the conidial germination entry is “stop” and the “intrusive behavior of the germinated conidia” value is listed as “stop”. The “inhibition of conidial germination” value with Alternaria brassicicola [2] is on record as “effectively inhibit”.

Take `COC(=O)c1cc(O)c(O)c(O)c1` [methyl gallate]: in experiment [1], the conidial germination result is “stop”. Further, in experiment [1], the “intrusive behavior of the germinated conidia” value is listed as “stop”. The “kill or inhibit the pathogen” value (with Ralstonia solanacearum; in the experiment with Acidovorax citrulli; in experiment [3]) was “kill or inhibit” throughout.

For the compound `CCCCCCCCCCCCOS(=O)(=O)[O-].[Na+]` [sodium lauryl sulfate], in the experiment on Alternaria brassicicola [4] (Table 2-1, with surfactant), the “Conidial germination rate (%) in different diluted condition 1000X” value is 55%, the “Conidial germination rate (%) in different diluted condition 1500X” value is reported as 90% and the “Conidial germination rate (%) in different diluted condition 2000X” value was 94%. Also, in the experiment on Alternaria brassicicola [4] (setting [5]), the “Conidial germination rate (%) in different diluted condition 1000X” value is given as 55%, the “Conidial germination rate (%) in different diluted condition 1500X” value was determined as 90% and the “Conidial germination rate (%) in different diluted condition 2000X” value was found to be 94%.
